*1 amine or outer side, *2 acyl side, *3 side chain or, on linkers, in order; H or OH if unused. Where a SMILES comes first, the peptide text is derived from it. Bridges are numbered along the chain shown (N, C = ends). [ ]: non-standard residue; d: D form. The star is where a group is joined. ξ: configuration not given here. Phe(3-OMe,4-CONHMs) = COc1cc(C[C@H](N)C(=O)O)ccc1C(=O)NS(C)(=O)=O; hPhe(3-OMe,4-CONHMe) = CNC(=O)c1ccc(CC[C@H](N)C(=O)O)cc1OC; X1 = COc1cc(C[C@H](N[*:1])C(=O)[*:2])ccc1C(=O)NO; Phe(4-COOH) = N[C@@H](Cc1ccc(C(=O)O)cc1)C(=O)O; NMePhe(3-Cl) = CN[C@@H](Cc1cccc(Cl)c1)C(=O)O; Tyr(3-F) = N[C@@H](Cc1ccc(O)c(F)c1)C(=O)O; Hyp = O=C(O)[C@@H]1C[C@@H](O)CN1; NMeF = CN[C@@H](Cc1ccccc1)C(=O)O; NMeI = CC[C@H](C)[C@H](NC)C(=O)O; ξThr(3R) = C[C@@H](O)C(N)C(=O)O; CH2CONHtBu = CC(C)(C)NC(=O)C*; NMeL = CN[C@@H](CC(C)C)C(=O)O; Thr(3ξ) = CC(O)[C@H](N)C(=O)O; Propyl(2R-OH) = C[C@@H](O)C*; NMeV = CN[C@H](C(=O)O)C(C)C; NMeAbu = CC[C@H](NC)C(=O)O; NMeA = CN[C@@H](C)C(=O)O; Piperidide = C1CCN(*)CC1; Me2NCH2CH2 = CN(C)CC*; NBuGly = CCCCNCC(=O)O; NPrGly = CCCNCC(=O)O; Ethyl(2-OH) = OCC*; N(OH)Me = CN(O)*; Sar = CNCC(=O)O; tBu = CC(C)(C)*
Assay: in vitro
Details: human, Caco-2, Caco-2

SMILES | Papp
CCCCN1CC(=O)N(C)[C@@H](CC(C)C)C(=O)N[C@@H](COCCN(C)C)C(=O)N(C)[C@@H](Cc2ccccc2)C(=O)N(C)[C@@H](C(C)C)C(=O)N[C@H](C(=O)N2CCCCC2)CC(=O)N[C@H](CC(C)C)C(=O)N(C)[C@@H](Cc2ccccc2)C(=O)N[C@@H](CC(C)C)C(=O)N(C)[C@@H](CC(C)C)C(=O)N[C@@H]([C@@H](C)O)C1=O [pd51] ([dL][NMeF]L[NMeL]T[NBuGly][NMeL]S(Me2NCH2CH2)[NMeF][NMeV]D-Piperidide; lactam N-11) | 0.07 ×10⁻⁶ cm/s

Same assay, conditions: human, Caco-2, Caco-2 (cm/sec)

SMILES | Papp
CC[C@H](C)[C@H]1C(=O)N[C@@H]([C@@H](C)O)C(=O)N(C)CC(=O)N(C)[C@@H](CC(C)C)C(=O)N[C@H](C(=O)N2CCCCC2)CC(=O)N(C)[C@@H](C(C)C)C(=O)N[C@@H](CC(C)C)C(=O)N(C)[C@@H](CC(C)C)C(=O)N(C)[C@@H](Cc2ccccc2)C(=O)N[C@@H](COC[C@@H](C)O)C(=O)N(C)[C@@H](Cc2ccccc2)C(=O)N1C [AP76] ([NMeV]L[NMeL][NMeF]S(Propyl(2R-OH))[NMeF][NMeI]T[Sar][NMeL]D-Piperidide; lactam N-11) | 0.84 ×10⁻⁶ cm/s
CC[C@H](C)[C@@H]1NC(=O)[C@H](CC(C)C)N(C)C(=O)CN(C)C(=O)C[C@@H](C(=O)N2CCCCC2)NC(=O)[C@H](CC(C)C)N(C)C(=O)[C@H](Cc2ccc(C(=O)N(C)O)cc2)NC(=O)[C@H](CC(C)C)N(C)C(=O)[C@H](Cc2cccc(Cl)c2)N(C)C(=O)CN(C)C(=O)[C@H]([C@@H](C)O)NC(=O)[C@H](CC(C)C)N(C)C1=O [AP255] ([Sar][NMeL]I[NMeL]T[Sar][NMePhe(3-Cl)][NMeL][Phe(4-COOH)](N(OH)Me)[NMeL]D-Piperidide; lactam N-11) | 0.05 ×10⁻⁶ cm/s
CC[C@H](C)[C@H]1C(=O)N2CCC[C@H]2C(=O)N(C)[C@@H](CC(C)C)C(=O)N[C@@H](COC(C)(C)C)C(=O)N2C[C@H](OCCO)C[C@H]2C(=O)N[C@@H]([C@@H](C)O)C(=O)N(C)[C@@H](CC(C)C)C(=O)N(C)[C@@H](CC(C)C)C(=O)N(C)[C@@H](CC(C)C)C(=O)N[C@H](C(=O)N2CCCCC2)CC(=O)N[C@H](CC(C)C)C(=O)N1C [AP238] ([dL][NMeI]P[NMeL]S(tBu)[Hyp](Ethyl(2-OH))T[NMeL][NMeL][NMeL]D-Piperidide; lactam N-11) | 2 ×10⁻⁶ cm/s
CC(C)C[C@H]1C(=O)N[C@H](C(=O)N2CCCCC2)CC(=O)N(C)[C@@H](C)C(=O)N[C@@H](Cc2ccc(O)c(F)c2)C(=O)N(C)[C@@H](CC(C)C)C(=O)N(C)[C@@H](CC(C)C)C(=O)N[C@@H](C(C)C)C(=O)N(C)[C@@H](Cc2ccccc2)C(=O)N(C)[C@@H](CC(C)C)C(=O)N[C@@H]([C@@H](C)O)C(=O)N(C)CC(=O)N1C [pd122] ([NMeA][Tyr(3-F)][NMeL][NMeL]V[NMeF][NMeL]T[Sar][NMeL]D-Piperidide; lactam N-11) | 0.46 ×10⁻⁶ cm/s
CC[C@H](C)[C@@H]1NC(=O)[C@H](CC(C)C)N(C)C(=O)CN(C)C(=O)C[C@@H](C(=O)N2CCCCC2)NC(=O)[C@H](CC(C)C)N(C)C(=O)[C@H](Cc2ccc(C(=O)NO)c(OC)c2)NC(=O)[C@H](CC(C)C)N(C)C(=O)[C@H](Cc2cccc(Cl)c2)N(C)C(=O)CN(C)C(=O)[C@H](C(C)O)NC(=O)[C@H](CC(C)C)N(C)C1=O (stereo partly drawn) [AP261] ([Sar][NMeL]I[NMeL][Thr(3ξ)][Sar][NMePhe(3-Cl)][NMeL][X1][NMeL]D-Piperidide; lactam N-11) | 0.02 ×10⁻⁶ cm/s
CCCCN1CC(=O)N(C)[C@@H](Cc2ccccc2)C(=O)N(C)[C@@H](CC(C)C)C(=O)N[C@@H](CC(C)C)C(=O)N(C)[C@@H](CC(C)C)C(=O)N[C@H](C(=O)N2CCCCC2)CC(=O)N(C)CC(=O)N(C)[C@@H](CC(C)C)C(=O)N[C@@H](Cc2ccc(O)cc2)C(=O)N(C)[C@@H](CC)C(=O)N[C@@H]([C@@H](C)O)C1=O [Compound F07] ([Sar][NMeL]Y[NMeAbu]T[NBuGly][NMeF][NMeL]L[NMeL]D-Piperidide; lactam N-11) | 0.54 ×10⁻⁶ cm/s
CC[C@H](C)[C@@H]1NC(=O)[C@H](CC(C)C)N(C)C(=O)[C@@H](C)NC(=O)C[C@@H](C(=O)N2CCCCC2)NC(=O)[C@H](C(C)C)N(C)C(=O)[C@H](Cc2ccccc2)N(C)C(=O)[C@H](COC(C)(C)C)NC(=O)[C@H](CC(C)C)N(C)C(=O)CN(C)C(=O)[C@H](Cc2ccc(O)cc2)NC(=O)[C@H](C)N(C)C1=O [pd117] ([dA][NMeL]I[NMeA]Y[Sar][NMeL]S(tBu)[NMeF][NMeV]D-Piperidide; lactam N-11) | 0.56 ×10⁻⁶ cm/s
CC(C)C[C@H]1C(=O)N[C@H](C(=O)N(C)[C@@H](Cc2ccccc2)C(=O)N[C@@H](C)C(=O)N2CCCCC2)CC(=O)N(C)[C@@H](C)C(=O)N[C@@H]([C@@H](C)O)C(=O)N(C)[C@@H](C)C(=O)N(C)[C@@H](CC(C)C)C(=O)N[C@@H](C(C)C)C(=O)N(C)[C@@H](Cc2ccccc2)C(=O)N[C@@H](Cc2ccccc2)C(=O)N1C [pd212] ([NMeA]T[NMeA][NMeL]V[NMeF]F[NMeL]D[NMeF]A-Piperidide; lactam N-9) | 1.4 ×10⁻⁶ cm/s
CC(C)C[C@H]1C(=O)N[C@@H](COC(C)(C)C)C(=O)N(C)[C@@H](Cc2ccccc2)C(=O)N(C)[C@@H](CC(C)C)C(=O)N[C@H](C(=O)N2CCCCC2)CC(=O)N[C@H](C(C)C)C(=O)N(C)[C@@H](Cc2ccccc2)C(=O)N[C@@H](C(C)C)C(=O)N(C)[C@@H](Cc2ccccc2)C(=O)N[C@@H]([C@@H](C)O)C(=O)N(C)CC(=O)N1C [pd210] ([dV][NMeF]V[NMeF]T[Sar][NMeL]S(tBu)[NMeF][NMeL]D-Piperidide; lactam N-11) | 1.6 ×10⁻⁶ cm/s
CCCCN1CC(=O)N(C)[C@@H](CC(C)C)C(=O)N[C@@H](COC(C)(C)C)C(=O)N(C)[C@@H]([C@@H](C)CC)C(=O)N(C)[C@@H](CC(C)C)C(=O)N[C@H](C(=O)N2CCCCC2)CC(=O)N[C@H](C)C(=O)N(C)[C@@H](Cc2ccccc2)C(=O)N[C@@H](Cc2ccc(C(=O)NS(C)(=O)=O)c(OC)c2)C(=O)N(C)[C@@H](CC(C)C)C(=O)N[C@@H]([C@@H](C)O)C1=O [AP137] ([dA][NMeF][Phe(3-OMe,4-CONHMs)][NMeL]T[NBuGly][NMeL]S(tBu)[NMeI][NMeL]D-Piperidide; lactam N-11) | < 0.29 ×10⁻⁶ cm/s
CC(C)C[C@@H]1NC(=O)[C@H](CC(C)C)N(C)C(=O)[C@H](C)N(C)C(=O)C[C@@H](C(=O)N(C)[C@@H](Cc2ccccc2)C(=O)N[C@@H](C)C(=O)N2CCCCC2)NC(=O)[C@H]([C@@H](C)O)NC(=O)[C@H](CC(C)C)N(C)C(=O)[C@H](Cc2ccccc2)NC(=O)[C@H](Cc2ccccc2)N(C)C(=O)[C@H](CC(C)C)N(C)C1=O [pd218] ([NMeA][NMeL]L[NMeL][NMeF]F[NMeL]TD[NMeF]A-Piperidide; lactam N-9) | 1.1 ×10⁻⁶ cm/s
CCCCN1CC(=O)N(C)[C@@H](CC(C)C)C(=O)N(C)[C@@H](CC(C)C)C(=O)N[C@@H](COC(C)(C)C)C(=O)N(C)[C@@H](CC(C)C)C(=O)N[C@H](C(=O)N2CCCCC2)CC(=O)N(C)CC(=O)N(C)[C@@H](Cc2cccc(Cl)c2)C(=O)N[C@@H](Cc2ccc(C(=O)NO)c(OC)c2)C(=O)N(C)[C@@H](CC(C)C)C(=O)N[C@@H]([C@@H](C)O)C1=O [AP260] ([Sar][NMePhe(3-Cl)][X1][NMeL]T[NBuGly][NMeL][NMeL]S(tBu)[NMeL]D-Piperidide; lactam N-11) | 0.04 ×10⁻⁶ cm/s
CC(C)C[C@@H]1NC(=O)[C@H](Cc2ccccc2)N(C)C(=O)[C@@H](C(C)C)NC(=O)C[C@@H](C(=O)N2CCCCC2)NC(=O)[C@H](C)N(C)C(=O)[C@H](CC(C)C)N(C)C(=O)[C@H](COC(C)(C)C)NC(=O)[C@H](CC(C)C)N(C)C(=O)CN(C)C(=O)[C@H](Cc2ccc(O)cc2)NC(=O)[C@H](CC(C)C)N(C)C1=O [pd127] ([dV][NMeF]L[NMeL]Y[Sar][NMeL]S(tBu)[NMeL][NMeA]D-Piperidide; lactam N-11) | 0.13 ×10⁻⁶ cm/s
CCCCN1CC(=O)N(C)[C@@H](CC(C)C)C(=O)N[C@@H](COC(C)(C)C)C(=O)N(C)[C@@H](CC(C)C)C(=O)N(C)[C@@H](CC)C(=O)N[C@H](C(=O)N2CCCCC2)CC(=O)N[C@H](CC(C)C)C(=O)N(C)[C@@H](Cc2ccccc2)C(=O)N[C@@H](CCc2ccc(C(=O)NC)c(OC)c2)C(=O)N(C)[C@@H](CC(C)C)C(=O)N[C@@H]([C@@H](C)O)C1=O [AP201] ([dL][NMeF][hPhe(3-OMe,4-CONHMe)][NMeL]T[NBuGly][NMeL]S(tBu)[NMeL][NMeAbu]D-Piperidide; lactam N-11) | 0.35 ×10⁻⁶ cm/s
CCCCN1CC(=O)N(C)[C@@H](CC(C)C)C(=O)N[C@@H](COC(C)(C)C)C(=O)N(C)[C@@H](CC(C)C)C(=O)N(C)[C@@H](CC)C(=O)N[C@H](C(=O)N2CCCCC2)CC(=O)N[C@H](CC(C)C)C(=O)N(C)[C@@H](Cc2ccccc2)C(=O)N[C@@H](Cc2ccc(O)cc2)C(=O)N(C)[C@@H](CC(C)C)C(=O)N[C@@H]([C@@H](C)O)C1=O [Compound F02] ([dL][NMeF]Y[NMeL]T[NBuGly][NMeL]S(tBu)[NMeL][NMeAbu]D-Piperidide; lactam N-11) | 0.04 ×10⁻⁶ cm/s
CCCCN1CC(=O)N(C)[C@@H](Cc2ccccc2)C(=O)N[C@@H]([C@@H](C)CC)C(=O)N(C)[C@@H](CC(C)C)C(=O)N[C@@H]([C@@H](C)O)C(=O)N(CCC)CC(=O)N(C)[C@@H](Cc2ccccc2)C(=O)N(C)[C@@H](CC(C)C)C(=O)N[C@@H](COCC(=O)NC(C)(C)C)C(=O)N(C)[C@@H](C)C(=O)N[C@H](C(=O)N2CCCCC2)CC1=O [AP18] ([NBuGly][NMeF]I[NMeL]T[NPrGly][NMeF][NMeL]S(CH2CONHtBu)[NMeA]D-Piperidide; lactam N-11) | 1 ×10⁻⁶ cm/s

Same assay, conditions: human, Caco-2, Caco-2 (cm/sec) Papp

SMILES | Papp
CC(C)C[C@@H]1NC(=O)[C@H](Cc2ccccc2)N(C)C(=O)C([C@@H](C)O)NC(=O)[C@H](Cc2ccccc2)N(C)C(=O)CN(C)C(=O)[C@H](Cc2ccccc2)NC(=O)[C@H](CC(C)C)N(C)C(=O)[C@H](CC(C)C)NC(=O)[C@H](Cc2ccccc2)N(C)C(=O)[C@H](C)N(C)C(=O)C[C@@H](C(=O)N2CCCCC2)NC1=O (stereo partly drawn) [pd231] ([NMeA][NMeF]L[NMeL]F[Sar][NMeF][ξThr(3R)][NMeF]LD-Piperidide; lactam N-11) | 0.21 ×10⁻⁶ cm/s

Source: US20230096766A1, “AMINO ACID HAVING FUNCTIONAL GROUP CAPABLE OF INTERMOLECULAR HYDROGEN BONDING, PEPTIDE COMPOUND CONTAINING SAME AND METHOD FOR PRODUCTION THEREOF” (Chugai Seiyaku Kabushiki Kaisha, priority 2018, published 2023)
